Data reported in patent US20120302530A1, “23-HYDROXY-BETULINIC ACID DERIVATIVES, PREPARATION METHODS AND USES THEREOF” (priority 2009, published 2012).
Like-named read-outs stand apart in the source and are kept apart here.

Tests used:
[1] = when even reaching 500 mg/kg; cited from earlier work
HIV-1Ada-M = assay: ELISA of HIV-1Ada-M p24 antigen expression in PBMC; format: cell-based; details: for therapeutic index TI: HIV-1Ada-M p24, PBMC, TI=IC50/EC50
Excerpt: (4) Quantitative Enzyme Linked Immunoadsorbent method (EIISA) detecting inhibiting effects of compounds to virus HIV-1Ada-Mp24 expression: (see JIANG, Haiou; WANG, Xu; L I, Rurun; CHEN, Dagang; B I, Kunlong, Experimental Research on Recipe Sanhuangsan Capsule Resisting AIDS Virus in Vitro, [J], Shandong Journal of Traditional Chinese medicine, 2005.8 (1):21-26).
Multi-heads sample injector is used to conduct triple dilution to the sample on the 96-hole culture plate. There are 6 dilutions, in which each dilution has 3 duplicate holes, and each hole is 100 ul. […] On the 96-hole flat culture plate, each hole is added with 25 ul virus stock solution containing 1000˜5000 pg/well P24 antigen, which is sufficiently blended. 75 ul mononuclear cell PBMC suspension liquid is added (3×10^5 cell numbers/hole). Upon placing in incubator of 37° C., 5% CO2 to the third day, 100 ul of culture medium is added to each hole. On the 7th day, cell culture supernatant is collected for p24 antigen test. According to p24 kit description, ELISA method is used to measure the virus HIV-1 p24 antigen concentration of each sample cell culture hole supernatant. The following formula is used to calculate the inhibition ratio of sample to virus.
Inhibition ratio of sample to virus p24 antigen (%)=(1−experimental hole OD value/cell+virus control hole OD value)×100%. Reed and Mueneh method is used to calculate EC50 of the test sample, and to further calculate the therapeutic index (TI) (TI=IC50/EC50). […] The positive control SCH-C, 23-hydroxyl-betulinic acid, compounds zhangnan-5, zhangnan-7 and zhangnan-8 all reach an inhibition ratio above 50% within the tested range. The positive control SCH-C inhibits HIV-1Ada-M p24 antigen expression. […] In addition, the inhibition effect to HIV-1Ada-M has significant dose-effect relationship with its concentration.

normal person PBMC = assay: Toxicity to PBMC cells (MTT, day 7); format: cell-based, human; details: day 7, MTT
Procedure: (§1) (2) Toxicity of compounds zhangnan-5, zhangnan-7 and zhangnan-8 to C8166 and PBMC cells:
(§2) C8166 (human T cell line) and PBM (using lymphocyte isolation liquid to separate from normal human peripheral blood, and adhered mononuclear cell separated from PBMC) cells in exponential phase are taken. The cells are resuspended after centrifugal (1000 r•min-1, 10 min), and the concentrations are adjusted to 4×10^5/ml and 2×10^6/ml. The test samples are double diluted on the 96-hole cell culture plate. In total 6 gradients are set, each having 3 duplicate holes. In addition, positive control group and cell control group are set. Upon adding cell suspended liquid, the test samples are placed in incubator of 370C and 5% CO2 for incubation. On the seventh (7th) day, MTT method is used to determine toxicity of the samples to cells.
(§3) Inhibition ratio of cell growth (%)=(1−experimental hole OD value/control hole (OD value)×100%

HIV-1IIIB = assay: Inhibition of HIV-1IIIB induced syncytium formation in C8166 cells; format: cell-based; details: for therapeutic index TI: HIV-1IIIB syncytium, C8166, TI=IC50/EC50; for EC50: HIV-1IIIB, C8166 cells, third day after infection
Excerpt: (3) The inhibition effects of compounds zhangnan-5, zhangnan-7 and zhangnan-8 to virus HIV-1IIIB inducing C8166 cell to form syncytium: (see JIANG, Haiou; WANG, Xu; L I, Rurun; CHEN, Dagang; B I, Kunlong, Experimental Research on Recipe Sanhuangsan Capsule for Resisting AIDS virus in Vitro, [J]. Shandong Journal of Traditional Chinese medicine, 2005.8 (1):21-26).
The test sample is double diluted with culture medium on the 96-hole flat culture plate. There are 8 dilutions in total. Each hole 100 ul has 2 duplicate holes. In addition, there are positive control group, cell control group and virus control group. 80 ul C8166 cell of 4×10^5/ml is added into each hole, and then 20 ul virus HIV-1IIIB supernatant is added into each hole. The final volume of each hole is 200 ul. The sample is placed in incubator of 370C, 5% CO2 for cultivation. […] Under the inverted microscope, the number of syncytium formed by virus HIV-1IIIB inducing C8166 cell is counted. […] The following formula is used to calculate the inhibition ratio of the sample to syncytium.
Inhibition ratio formed by syncytium (%)=(1−experimental hole syncytium number/control hole syncytium number)×100%

[2] = test system: C8166 (human T cell line); assay: Toxicity to C8166 cells (MTT, day 7); format: cell-based; details: C8166, day 7, MTT
Procedure: as §1, §2, §3

## C=C(C)[C@@H]1CC[C@]2(C(=O)O)CC[C@]3(C)[C@H](CC[C@@H]4[C@@]5(C)CC[C@H](O)C(C)(C)[C@@H]5CC[C@]43C)[C@@H]12 [Betulinic acid, 3β-hydroxy-1up-20(29)-ene-28-oic acid]
[1]
  toxic reaction: no obvious toxic reaction

## CCO/N=C(\c1ccc(Br)cc1)C1CCN(C2(C)CCN(C(=O)c3c(C)cc[n+]([O-])c3C)CC2)CC1 [SCH-C, reference compound]
HIV-1Ada-M
  therapeutic index TI: 2583

## C=C(C)[C@@H]1CC[C@]2(C(=O)O)CC[C@]3(C)[C@H](CC[C@@H]4[C@@]5(C)CC[C@H](O)[C@@](C)(CO)[C@@H]5CC[C@]43C)[C@@H]12 [23-hydroxyl-betulinic acid, reference compound]
HIV-1Ada-M
  therapeutic index TI: 7.8
HIV-1Ada-M; HIV-1Ada-M, PBMC, 7th day, ELISA, read-out: EC50, inhibition of p24 antigen expression
  EC50: 1.9 ± 0.39 µM
Normal person PBMC
  IC50: 14.9 ± 3.46 µM
HIV-1IIIB
  therapeutic index TI: 13
  EC50: 1.2 ± 0.23 µM
[2]; read-out: IC50 (50% inhibition concentration) to C8166 cell
  IC50: 15.1 ± 3.57 µM

## Cc1cn([C@H]2C[C@H](N=[N+]=[N-])[C@@H](CO)O2)c(=O)[nH]c1=O [AZT, reference compound]
HIV-1IIIB
  therapeutic index TI: 2473
  EC50: 1.39 µM
[2]; positive control, read-out: toxicity to 50% of C8166 cells
  IC50: 3440 µM
